TGI and GI50 data for 15 compounds are collected here from PubChem BioAssay (NCI).

Among the test systems are CCRF-CEM leukemia; HCT-116 colon; HCT-15 colon; HL-60(TB) leukemia; HOP-62 NSCLC; MALME-3M melanoma; NCI-H23 lung; NCI-H460 lung; OVCAR-8 ovarian; U251 CNS.
Holding throughout (experiment): NCI tumour cell line growth inhibition, 48 h

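Grown in 96-well plates, cells were treated for 48 hours with each compound at five concentrations. Insufficient inhibition: endpoint recorded as highest concentration tested. At the GI50, growth is halved. TGI denotes the concentration required for complete inhibition of growth.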 Some results are limits rather than exact numbers.

For the compound `N#CC(Nc1cccc(C(F)(F)F)c1)c1ccccc1C(F)(F)F` (stereo unspecified), the TGI amounted to 59.7 µM in the test on CCRF-CEM leukemia; 18.7 µM in the test on HCT-116 colon; 17.8 µM in the test on HCT-15 colon; 7.57 µM in the test on HL-60(TB) leukemia; 10.8 µM with HOP-62 NSCLC; 18 µM in the test with MALME-3M melanoma. The TGI with NCI-H23 lung came to 27.6 µM; with NCI-H460 lung it was 29.9 µM; with OVCAR-8 ovarian, 33 µM; in the test on U251 CNS, 30.5 µM.

Consider `c1ccc(N=c2nc(N3CCOCC3)ss2)cc1`, for which the TGI is 27.7 µM in the test on HCT-116 colon; 29 µM in the test on HCT-15 colon; 47.3 µM in the test with HL-60(TB) leukemia; above 100 µM in the test with HOP-62 NSCLC; 28.8 µM in the test with MALME-3M melanoma; above 100 µM in the test with NCI-H23 lung. Besides, the values for the TGI in the test with NCI-H460 lung, in the test with OVCAR-8 ovarian and with U251 CNS were 34.7 µM, 28.3 µM and 28.6 µM, respectively.

Regarding `CCOc1ccc(/C(C=O)=C(\Cl)c2ccc(OC)c(OC)c2)cc1`, the TGI in the test on CCRF-CEM leukemia, in the test on HCT-116 colon, with HCT-15 colon, in the test with HL-60(TB) leukemia, with MALME-3M melanoma and in the test on NCI-H23 lung was above 100 µM throughout. In addition, the TGI in the test with NCI-H460 lung, in the test with OVCAR-8 ovarian and in the test on U251 CNS was above 100 µM each time.

As for `CCCC(N)C(=O)c1ccccc1` (stereo unspecified), the TGI in the test with CCRF-CEM leukemia, with HCT-116 colon, in the test on HCT-15 colon, in the test on HL-60(TB) leukemia, in the test with HOP-62 NSCLC and in the test on MALME-3M melanoma was above 100 µM each time. The TGI with NCI-H23 lung, with NCI-H460 lung, in the test on OVCAR-8 ovarian and with U251 CNS was above 100 µM throughout.

For `Cc1cc2c(C(C)C)c(O)c(O)c(C=NCCO)c2c(O)c1-c1c(C)cc2c(C(C)C)c(O)c(O)c(C=NCCO)c2c1O`, the TGI is 5.78 µM with CCRF-CEM leukemia; 3.03 µM with HCT-116 colon; 2.9 µM in the test with HCT-15 colon; 4.97 µM in the test on HL-60(TB) leukemia; 5.96 µM in the test on HOP-62 NSCLC; 9.36 µM in the test on MALME-3M melanoma. For the same compound, the TGI was 4.16 µM with NCI-H23 lung, 2.41 µM in the test with NCI-H460 lung, 21.9 µM with OVCAR-8 ovarian and 2.59 µM in the test on U251 CNS.

With `O=C(Nc1ccc(Sc2ccc(N=Nc3c(O)c(S(=O)(=O)O)cc4cc(S(=O)(=O)O)ccc34)cc2)cc1)c1ccc(N=Nc2c(O)ccc3c(S(=O)(=O)O)cc(S(=O)(=O)O)cc23)cc1`, the TGI is 77.4 µM in the test with CCRF-CEM leukemia; above 100 µM with HCT-116 colon; above 100 µM in the test with HCT-15 colon; 33.5 µM in the test on HL-60(TB) leukemia; above 100 µM in the test with HOP-62 NSCLC; 72 µM in the test on MALME-3M melanoma. Moreover, the TGI in the test on NCI-H23 lung, in the test with NCI-H460 lung, in the test on OVCAR-8 ovarian and in the test on U251 CNS was above 100 µM in each case.

Regarding `O=C(Nc1c(C(=O)NC2CCCCC2)[nH]c(=O)[nH]c1=O)c1ccc(Cl)cc1`, the TGI with CCRF-CEM leukemia, with HCT-116 colon, with HCT-15 colon, in the test on HL-60(TB) leukemia, in the test with HOP-62 NSCLC and in the test on MALME-3M melanoma was above 100 µM throughout. The TGI with NCI-H460 lung and in the test on OVCAR-8 ovarian was above 100 µM each time.

On to `CC(=O)O[C@H]1C=CC(=O)C(C)CC1C` (stereo partly specified), for which the TGI in the test with CCRF-CEM leukemia, with HCT-116 colon, in the test with HL-60(TB) leukemia, in the test on HOP-62 NSCLC, in the test on MALME-3M melanoma and with NCI-H23 lung was above 100 µM each time. The TGI with NCI-H460 lung and with U251 CNS was above 100 µM each time.

Take `CCC(=O)NC(Nc1cccc(F)c1)(C(F)(F)F)C(F)(F)F`: the TGI in the test with CCRF-CEM leukemia, in the test with HCT-116 colon, with HCT-15 colon, in the test with HL-60(TB) leukemia, in the test with NCI-H23 lung and in the test with NCI-H460 lung was above 100 µM each time. The TGI in the test with OVCAR-8 ovarian and with U251 CNS was above 100 µM each time.

As to `Clc1ccc(CNc2nc(Cl)c3[nH]cnc3n2)cc1Cl`, the TGI with CCRF-CEM leukemia is above 100 µM; in the test on HCT-116 colon, 60.7 µM; in the test with HCT-15 colon it was above 100 µM; in the test on HOP-62 NSCLC it was 89.2 µM; in the test with MALME-3M melanoma, above 100 µM; with NCI-H23 lung, above 100 µM. Further, the TGI in the test with NCI-H460 lung is 73.3 µM; with OVCAR-8 ovarian, 99.2 µM; with U251 CNS, above 100 µM.

`COc1ccc(-c2nn(-c3cccc(NC(=O)Nc4ccccc4)c3)cc2-c2ccncc2)cc1Cl`: the GI50 with CCRF-CEM leukemia was 2.65 µM; in the test on HCT-15 colon, 1.96 µM; in the test with HL-60(TB) leukemia, 2.52 µM; in the test on HOP-62 NSCLC, 3.12 µM; with MALME-3M melanoma, 1.89 µM; with NCI-H23 lung, 3.5 µM. For the same compound, the GI50 with NCI-H460 lung is 2.06 µM; with OVCAR-8 ovarian, 2.51 µM; in the test on U251 CNS it was 1.99 µM. The TGI in the test with CCRF-CEM leukemia is 8.31 µM; in the test with HCT-15 colon, 4.98 µM; in the test on HL-60(TB) leukemia, 6.36 µM; in the test on HOP-62 NSCLC it was 9.13 µM; in the test on MALME-3M melanoma it was 4.83 µM; in the test with NCI-H23 lung, above 100 µM. In addition, the TGI was 4.48 µM in the test on NCI-H460 lung, 7.18 µM in the test on OVCAR-8 ovarian and 4.91 µM in the test with U251 CNS.

Turning to `NC1(C(=O)O)CCc2ccc(N(CCCl)CCCl)cc2C1` (stereo unspecified), the TGI was above 100 µM in the test with CCRF-CEM leukemia; 1.69 µM with HCT-116 colon; above 100 µM with HCT-15 colon; above 100 µM in the test with HL-60(TB) leukemia; 63.5 µM in the test on HOP-62 NSCLC; 2.2 µM in the test on MALME-3M melanoma. Besides, the TGI in the test with NCI-H23 lung, with NCI-H460 lung, in the test with OVCAR-8 ovarian and in the test on U251 CNS was above 100 µM throughout.

Regarding `CN1C[C@H]2[C@@H](C1=O)[C@H](c1ccccc1)ON2C`, the TGI in the test on CCRF-CEM leukemia, in the test on HCT-116 colon, in the test with HCT-15 colon, with HOP-62 NSCLC, in the test on NCI-H23 lung and with NCI-H460 lung was above 100 µM each time. The TGI in the test on OVCAR-8 ovarian and with U251 CNS was above 100 µM each time.

With `O=C(O)C1CCC(=O)N1S(=O)(=O)c1ccccc1` (stereo unspecified), the TGI in the test with CCRF-CEM leukemia, in the test on HCT-116 colon, with HCT-15 colon, with HL-60(TB) leukemia, in the test with HOP-62 NSCLC and in the test on MALME-3M melanoma was above 100 µM throughout. Moreover, the TGI with NCI-H23 lung, in the test with NCI-H460 lung, in the test on OVCAR-8 ovarian and in the test with U251 CNS was above 100 µM each time.

On to `Fc1ccc(-c2nn3c(-c4cc(C(F)(F)F)cc(C(F)(F)F)c4)nnc3s2)cc1`, for which the GI50 in the test with CCRF-CEM leukemia was above 50 µM; in the test with HCT-116 colon, 1.7 µM; with HCT-15 colon, above 50 µM; in the test on HOP-62 NSCLC, 1.2 µM; in the test with NCI-H23 lung, 3.05 µM; in the test on NCI-H460 lung, 1.62 µM. Besides, in the test on OVCAR-8 ovarian, the GI50 is 1.77 µM. Also, the TGI was above 50 µM in the test on CCRF-CEM leukemia; above 50 µM in the test on HCT-116 colon; above 50 µM in the test on HCT-15 colon; 3.35 µM in the test on HOP-62 NSCLC; above 50 µM in the test with NCI-H23 lung; above 50 µM in the test with NCI-H460 lung. In addition, the TGI in the test on OVCAR-8 ovarian was above 50 µM.
